Test systems include LXFL 529; SNB-78; RXF 631; DMS-273; KM-20L2; DMS-114; HOP-18; DLD-1; XF498.
Holding throughout (assay): NCI anticancer screen, dose series, 48 h

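48-hour exposure; five concentrations; linearly interpolated endpoints. At the GI50, growth is halved.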 Activity calls are given as the source filed them. Cut-off read from the data, not from the text of the source: active = GI50 up to about 1.1 µM and inactive = higher.

As to `COc1ccc(/C=C\c2cc(OC)c(OC)c(OC)c2)cc1OC(=O)NCCN(C)C`, the GI50 is < 0.1 nM (active) with LXFL 529; < 0.1 nM (active) with SNB-78; 0.196 nM (active) in the assay on RXF 631; < 0.1 nM (active) with DMS-273; 136 nM (active) in the assay with KM-20L2; < 0.1 nM (active) in the assay with DMS-114. For the same molecule, the figures for the GI50 in the assay with HOP-18, in the assay on DLD-1 and with XF498 were 16800 nM (inactive), < 0.1 nM (active) and < 0.1 nM (active), respectively.

For the origin of these results see ChEMBL document CHEMBL1201862, “PubChem BioAssay data set” (2004).
